melting point [°C]	SMILES
146 to 147	Cc1oc(-c2ccco2)nc1COc1ccc(C=O)cc1Br
220 to 225	CCOc1ccc(-c2ccc(S(=O)(=O)NC(C(=O)O)C3CCN(CC(C)C)CC3)s2)cc1 (centres undefined)
86 to 87	Cc1cccc(-n2nc(C)cc2-c2ccnc(NCCc3ccccc3)c2)c1
184 to 185	Cc1cn(Cc2ccc(F)cc2)c(C)c1C(=O)CC(=O)C(=O)O
113 to 115	O=C(O)c1ccc(S(=O)(=O)NCCSC2c3ccccc3COc3ccc(OCc4ccc5ccccc5n4)cc32)cc1 (centres undefined)
182 to 183	CCOC(=O)CN(c1ccccc1)[C@H]1c2cc(C#N)ccc2OC(C)(C)[C@@H]1O
75 to 78	CCOC(=O)C1=C(C)NC(C)=C(C(=O)OCCN2CCN(C(c3ccc(C)cc3)c3ccc(C)cc3)CC2)C1c1cccc(OC)c1 (centres undefined)
87 to 90	Cc1cc(OCCNC(=O)C2Cc3ccccc3N2S(=O)(=O)c2ccc(-c3cccc(C(F)(F)F)c3)cc2)ccc1CC(=O)O (centres undefined)
181 to 182	COc1cc2c3cc(OC)c(OC)cc3n(C(=O)c3ccccc3)c2cc1OC
189 to 190	CC1=C(C)C(=O)N(C(=O)NCCc2ccc(S(=O)(=O)NC(=O)NC3CCCCC3)cc2)C1
190 to 192	CSc1nc(N)ncc1S(=O)(=O)NC(=O)NC(C)C
219 to 234	CC(=O)Nc1ccc(S(=O)(=O)Nc2ccn(C3CCCCC3)c(=O)n2)cc1
120 to 130	O=C(O)[C@H](Cc1c[nH]c2ccccc12)NS(=O)(=O)c1ccc2c(c1)Sc1ccccc1O2
97 to 99	CC(=O)CCc1ccc(OCCCC(=O)O)cc1
200 to 203	CC(C)(C)c1cc(C(C)(C)C)c2c(c1)C1(O)C(=O)c3ccccc3C1(O)O2 (centres undefined)
243 to 244	CCOc1c(Nc2ccc3[nH]cnc3c2)c(=O)c1=O
148 to 151	Cc1ccc(S(=O)(=O)OC2CCc3[nH]c4ccccc4c3C2)cc1 (centres undefined)
57 to 59	CCOC(=O)N1CC(C)N(C(C)C(O)(Cn2cncn2)c2ccc(F)cc2F)CC1C (centres undefined)
122 to 127	Nc1nc2ccccc2c2c1ncn2CCCCNC(=O)c1ccc2ncccc2c1
71 to 73	Cc1ccc(C(=O)NC/C=C\COc2cc(CN3CCCCC3)ccn2)s1
78 to 80	COC(=O)CCCNC(=O)C[C@H]1O[C@H](c2cccc(OC)c2OC)c2cc(Cl)ccc2N(CC(C)(C)CO)C1=O
> 240	COc1ccc2c(=O)cc(-c3ccc(O)c(O)c3)oc2c1

melting point [°C]	SMILES
79	C=CCn1c(C)nc2c3c(ccc21)[C@@H](OCCOC)[C@H](O)[C@@H](c1ccccc1)O3
241 to 242	CC(C)c1cccc(C(C)C)c1NC(=O)C(Cc1ccccc1)NC(=O)NC(C)(C)C (centres undefined)
114 to 117	Cc1cc(Oc2ccc([N+](=O)[O-])c(C)c2)n[nH]1
165 to 166	COc1ccc(C(=O)c2c(CO[N+](=O)[O-])[nH]c(=O)n2C(C)=O)cc1
182 to 185	COC(=O)CNc1cc(CS(=O)(=O)C=Cc2c(OC)cc(OC)cc2OC)ccc1OC
92 to 94	COc1ccc(C(=O)c2ccccn2)cc1CCl
205	Cc1c(C(=O)c2ccc(Cl)c(S(N)(=O)=O)c2)[nH]c2ccccc12
306 to 308	COc1ccc(-c2ccn(-c3ccc4c5c(n(C)c4c3)CN(C(=O)OC(C)(C)C)CC5)c(=O)c2)cc1
190 to 192	CCC1(C(=O)OC)C(=O)Nc2cccc(Cl)c2CC1c1ccc(OC)cc1 (centres undefined)
119 to 120	CC(C)(C)C1=C(C(=O)OCc2ccc([N+](=O)[O-])cc2)N2C(=O)C(C)(C)C2O1 (centres undefined)
112 to 113	O=C(O)CCCc1ccc(CCN(CC=Cc2ccc(Cl)cc2)S(=O)(=O)c2ccc(Cl)cc2)cc1
187 to 188	COc1cc(-c2cc(=O)c3ccc(OCC4CO4)cc3o2)cc(OC)c1OC (centres undefined)
98 to 100	CC(C)(C)c1cc(Oc2ccc(Br)cc2)cc(C(C)(C)C)c1
142 to 143	COc1nc(Cl)cnc1N(C(=O)OCC(C)C)S(=O)(=O)c1ccccc1-c1ccc(OC2CCCCO2)cc1 (centres undefined)
178 to 182	COc1cc(C(=O)OCCN(CCOC(=O)c2cc(OC)c(OC)c(OC)c2)CCS(=O)(=O)O)cc(OC)c1OC
105 to 107	Cc1ncccc1Oc1ccc(C(=N)Nc2cc(Cl)cc(NC(=O)C=Cc3ccccc3Cl)c2)cc1
133	COC(=O)c1ccc(/C=C/C(=O)NOC2CCCCO2)cc1 (centres undefined)
113 to 114	CC1=C(C)C(=O)C(C(CCCCCCC(=O)O)c2cccnc2)=C(C)C1=O (centres undefined)
231 to 232	CN(C)C(=O)Cc1nc(-c2ccncc2)nc2c1c1ccc(Cl)cc1n2C
220 to 222	CC(=O)Nc1cccc(S(=O)(=O)c2cc(O)c(O)cc2C)c1
168	Cc1ccc(S(=O)(=O)NC(=O)OCCc2ccc(-n3c(C4CCCCC4)nc4c(C)nc(C)cc43)cc2)cc1

The next lines start with the molecule.

SMILES	melting point [°C]
CN(C)C1(c2ccccc2)CCC(NC(=S)NCCc2c[nH]c3ccccc23)CC1 (centres undefined)	98 to 103
O=C(O)[C@H](Cc1ccccc1)Nc1c(N2CCN(c3ccccc3)CC2)c(=O)c1=O	165 to 167
CC(CCC(F)(F)C(C)(C)O)C1CCC2C3CCC4=CC(=O)C=CC4(C)C3CCC12C (centres undefined)	176 to 177
C#CCc1[nH]c(C)c2c1CN=C(c1ccccc1F)c1cc(Cl)ccc1-2	179 to 180
COCOCc1nc2nccnc2c(=O)[nH]1	161 to 163
CS(=O)(=O)NC1CCN(Cc2ccccc2)CC1	135 to 136
CN1CCN(c2n[nH]c3ccc(Cl)cc23)CC1	172 to 174
Cc1ccc(-c2nc3cc([N+](=O)[O-])ccc3o2)o1	182 to 184
CC(=O)Nc1ncc(C(C)=O)cc1C	115 to 116
O=C1C(c2ccccc2)c2ccccc2SN1c1ccccc1O (centres undefined)	165 to 168
CN(c1ccncc1)n1cccc1CO	145 to 148
N=c1ccccn1Cc1ccccc1	52 to 54
CC(C)NC(=S)NC(=O)c1ccc(C#N)cc1	156 to 157
O=C(Nc1cnc2cnc(-c3ccc(O)cc3)nc2c1)c1ccncc1	230 to 232
O=C1N(N2CCCCC2)c2ccccc2C1(Cc1ccccc1)c1ccccc1 (centres undefined)	114 to 116
O=C(Nc1ccc2ccccc2c1-c1c(P(c2ccccc2)c2ccccc2)ccc2ccccc12)c1ccccc1	94.8
OCCc1nccn1CCCc1cccc(O)c1	111 to 113
O=C(O)c1ccc(Nc2cccc3ccccc23)cc1	227 to 229
c1cc(CCCCCc2nnn[nH]2)n2cncc2c1	149 to 150

SMILES	melting point [°C]
CC(=O)N(CC(C)Cl)c1c(C)cccc1C (centres undefined)	41 to 42
CS(=O)c1nnc(-c2ccc3ncn(-c4ccc(OC(F)(F)F)cc4)c3c2)o1 (centres undefined)	152 to 153
FC(F)(F)C(c1cc(-c2ccccc2)c(-c2ccccc2)[nH]1)C(F)(F)F	112 to 114
CC1(C)Nc2ccc(Br)cc2C(NC(=NC#N)Nc2ccccc2)C1O (centres undefined)	232 to 233
Cn1c(C=O)c(-c2ccccc2)c2ccccc2c1=O	181 to 182
CN(C)C1(c2ccccc2)CCC(c2[nH]c3ccccc3c2C2CC2)CC1 (centres undefined)	238 to 245
O=C(O)c1cn(C2COC2)c2c(F)c(N3CCNCC3)cc(F)c2c1=O	> 300
CN1CSC(=Cc2cc(C(C)(C)C)c(O)c(C(C)(C)C)c2)C1=O	142 to 144
COC(OC)C(C)(O)c1cnc(C=O)s1 (centres undefined)	98 to 99
O=C1CC(=O)C(C2CCCSC2)CO1 (centres undefined)	91 to 93
CCN1CCN(c2cccc3c2CC(NC(=O)c2ccc(N4CCOCC4)cc2)CC3)CC1 (centres undefined)	204 to 206
Cc1ccc(OCCCCOc2ccc(C)cc2)cc1	104
CCC(CC)/C(N)=C(\C#N)C(=O)OC(C)C	140
Cn1cc(-c2ccccc2)c(=O)c(-c2ccc(F)cc2)c1	166
CCc1cn2c(N)c(Cl)cc(C(=O)NCC3CCN(CC4(O)CCOCC4)CC3)c2n1	229
CN(Cc1ccc([N+](=O)[O-])cc1)C1CCN(c2ccc([N+](=O)[O-])cc2)CC1	119 to 120
CCOC(=O)COCC1CCCN(C(=O)c2cnc(NC(=N)N)s2)C1 (racemic)	156
O=C(c1ccc(Cl)cc1)c1cc(Cl)cc2c1OCC2C(=O)O (centres undefined)	161 to 163
NOCCc1cn(C(c2ccccc2)(c2ccccc2)c2ccccc2)cn1	93

SMILES	melting point [°C]
COC(=O)c1cncc(O)c1C(=O)OC	136 to 137
COC(=O)C(C(C)=O)=C(N)C(F)(F)F	63 to 65
O=C(O)C(CC(=O)N1Cc2ccc(F)cc2C1)Cc1ccccc1 (centres undefined)	136 to 138
Cc1ccc(-n2c(-c3sc(Nc4ccccc4)nc3-c3ccccc3)nc3ccccc3c2=O)cc1	225 to 228
CC(=O)c1c(Nc2ccccc2)n[nH]c1C	246 to 247
CCCCc1ccc(C(=O)O)cc1C12CC3CC(CC(C3)C1)C2	209 to 210
OCCCC#Cc1cnc(-c2ccccc2)c(-c2ccccc2)n1	88 to 90
O=c1c2ccc(O)cc2oc2c([N+](=O)[O-])ccc(Cl)c12	179 to 182
ClCCCOc1ccc(OCCCCl)c(Cl)c1	135
CC1=C(CC(NC(=O)c2ccc(Cl)cc2)NC(=NC#N)Nc2cccnc2)C(C)(C)CCC1 (centres undefined)	95 to 96
Cc1nn(C)c2nc(N(CC3CCC3)CC3CC3)c(CN(Cc3cc(C(F)(F)F)cc(C(F)(F)F)c3)c3nnn(C)n3)cc12	84 to 85
NC(=O)N(O)Cc1ccc2c(c1)CCN2Cc1ccccc1	107
O=C(O)CC1CCC(CCNS(=O)(=O)c2ccc(Br)cc2)CC1 (centres undefined)	124 to 126
Cn1cc(Br)nc(Nc2cnn(CCO[Si](C)(C)C(C)(C)C)c2)c1=O	172 to 173
N#Cc1c(C(F)(F)F)nn(-c2c(Cl)cc(C(F)(F)F)cc2Cl)c1Br	85 to 87
Cc1c(F)c(F)cc(C(=O)O)c1F	101 to 102
Cc1nc(NC(=N)N)sc1C(=O)N1CC[C@@H](COCC(=O)O)C1	136
CC(=O)c1c[nH]c(C)n1	124 to 127
